Test results from US20070161697A1, “Hydrazide type compounds and the use thereof in pharmaceutical compositions for the treatment of cardiovascular diseases” (priority 2004, published 2007).

How the values were obtained:
Wistar rats [1] = assay: Insulin in plasma, rats on dietary regimen rich in fructose; assay type: in vivo; details: 50 mg/kg oral
Description: Secondly, the activity of the compound CGP 02-01 was studied using a reference rat-fructose model. Groups of Wistar rats (n=12) were subjected for 3 weeks to a dietary regimen containing […] of fructose. […] Groups of rats subsequently received by forced feeding 50 mg/kg of the compound CGP 02-01 dissolved in a 2% tween solution prepared in methylcellulose. The blood samples for the biochemical analyses were performed after 1, 2 and 3 weeks. Independent groups of rats wee treated under the same conditions with metformin hydrochloride at a dose of 50 mg/kg. The metformin served as a reference in this metabolic syndrome model. Assay of insulin in plasma may be performed by radioimmunological assay using commercially available kits comprising specific anti-insulin antibodies of mice or rats. One may for example use the rat/mouse ELISA kits, Linco research (ref. EZRMI-13K).

ApoE −/− mice [2] = assay: Triglyceride deposit in the aortas of ApoE −/− mice; assay type: in vivo; details: control 185±33
Source text: (§1) Firstly, mice devoid of the coding gene for Apo lipoprotein E (ApoE −/−) have been used. These mice represent a model of choice of studying early atherosclerosis and development of a plaque rich in foamy macrophages. Male C57BL/6J mice homozygote for deletion of the ApoE gene were subjected to a normal dietary regimen until the age of eight weeks. These mice (n=8 per group) subsequently received ad libitum and for 12 weeks either a dietary regimen not enriched with cholesterol or fat, or an enriched regimen, containing 1.5 g/kg of cholesterol and 200 g/kg of fat of milk origin. The untreated mice underwent daily intraperitoneal injections of a solution containing DMSO at 10%. The treated mice received by intraperitoneal injection the same solution containing 2 or 20 μg (i.e. 0.1 mg/kg/day or 1 mg/kg/day) of the compound CGP 02-01. Following the blood sample for the biochemical analyses, the mice were killed.
The triglycerides which accumulate in the aortic wall were measured in the following manner: the aortas of the animals are rinsed with physiological saline after dissection. The lipid mass of the adventitia is eliminated by dissection and the intima media is dehydrated. The triglyceride level is measured and expressed as the weight of triglycerides per dry weight of tissue.

Wistar rats [3] = assay: Total cholesterol in plasma, rats on dietary regimen rich in fructose; assay type: in vivo; details: 50 mg/kg oral, 3 weeks of treatment
Description: Secondly, the activity of the compound CGP 02-01 was studied using a reference rat-fructose model. Groups of Wistar rats (n=12) were subjected for 3 weeks to a dietary regimen containing […] of fructose. Under these conditions, the rats develop a metabolic syndrome comprising hyperglycaemia, hyperinsulinaemia, hypercholesterolaemia and hypertriglyceridaemia. Groups of rats subsequently received by forced feeding 50 mg/kg of the compound CGP 02-01 dissolved in a 2% tween solution prepared in methylcellulose. The blood samples for the biochemical analyses were performed after 1, 2 and 3 weeks. Independent groups of rats wee treated under the same conditions with metformin hydrochloride at a dose of 50 mg/kg. The metformin served as a reference in this metabolic syndrome model. The circulating total cholesterol may be measured by enzymatic assay using the commercially available kit. This assay may for example use an enzymatic sequence of the cholesterol-esterase/cholesteroloxydase/chromogenic peroxidase type. In summary, the total esterified cholesterol is transformed into free cholesterol and fatty acid by the action of cholesterol esterase. The non-esterified cholesterol is subsequently measured by the formation of quinoeimine in the presence of cholesterol oxidase and peroxidise. The intensity of the quinoneimine coloration is proportional to the quantity of cholesterol present in the sample.

ApoE −/− mice [4] = assay: Free cholesterol in plasma, ApoE −/− mice on normal non-enriched dietary regimen; assay type: in vivo; details: 1 mg/kg; 3 months; p<0.05
Source text: as §1
Measurement of free cholesterol may be performed by an enzymatic method. The free cholesterol is oxidised by cholesterol oxidase into Delta 4 cholestenon and simultaneously produces hydrogen peroxide. The hydrogen peroxide subsequently allows oxidative condensation of the DHESA and the aminoantipyrinre, producing a blue colour. The quantity of free cholesterol is subsequently measured by the absorbance of the blue colour. […]

ApoE −/− mice [5] = assay: HDL level in plasma, ApoE −/− mice on regimen rich in cholesterol; assay type: in vivo
Source text: as §1, with “The treated mice received by intraperitoneal injection the same solution containing 2 or 20 μg (i.e. 0.1 mg/kg/day or 1 mg/kg/day) of the compound CGP 02-01.” left out
The plasma HDL level is measured by tried and trusted commercial methods which use high density lipoprotein separation reagents and by measurement of the cholesterol level associated with these high molecular weight lipoproteins (Biomérieux kit ref. 61533 for example).

ApoE −/− mice [6] = assay: Insulin in plasma, ApoE −/− mice on regimen rich in cholesterol; assay type: in vivo
Source text: as §1
Assay of insulin in plasma may be performed by radioimmunological assay using commercially available kits comprising specific anti-insulin antibodies of mice or rats. One may for example use the rat/mouse ELISA kits, Linco research (ref. EZRMI-13K).

ApoE −/− mice [7] = assay: Circulating triglycerides, ApoE −/− mice on regimen rich in cholesterol and fat; assay type: in vivo; details: 1 mg/kg; 3 months
Source text: as §1, with “Following the blood sample for the biochemical analyses, the mice were killed.” left out
Assay of serum triglycerides may be performed enzymatically using the commercially available kit. […] The glycerol 3 phosphate is subsequently transformed into dihydroxyacetone in generating oxygenated water (H202) which may be detected by formation of quinoneimine in the presence of parachlorophenol, amino-4-antipyrin and peroxidase. The intensity of the quinoneimine coloration is subsequently measured at 505 nm. This coloration is proportional to the quantity of triglycerides present in the sample.

ApoE negative mice = assay: Histological analysis of the aortic lesions (atheroma plaque) of ApoE negative mice; assay type: in vivo; details: aorta of treated vs untreated mice; FIG. 6
Source text: as §1
The aortas of the mice are fixed with paraformaldehyde and are dissected into 10 μm sections for histological analysis of the lesions (FIG. 6).

melting point: 205.4 °C
SMILES: COc1cc(O)c(/C=N/NC(=O)c2cc3ccccc3s2)c(OC)c1 [CGP02-01, N′-[(1E)-(2-hydroxy-4,6-dimethoxyphenyl)methylene]-1-benzothiophene-2-carbohydrazide]
Variation (reduction) of insulin level (Wistar rats [1]): 11.3%
Plasma insulin level (Wistar rats [1]; 3 weeks, control 1.85±0.04): 1.64 ± 0.03 ng/mL
Triglyceride deposit on the aortic wall (ApoE −/− mice [2]; 0.1 mg/kg): 156 ± 31 µg/mg
Triglyceride deposit on the aortic wall (ApoE −/− mice [2]; 1 mg/kg, three months, n=8): 131 ± 42 µg/mg (dry weight)
Reduction in total cholesterol (Wistar rats [3]): 54.5%
Plasma total cholesterol level (Wistar rats [3]; control 0.79±0.05): 0.36 ± 0.03 g/L
Effect on plasma free cholesterol variation vs untreated (ApoE −/− mice [4]): 22.7%
Plasma HDL level (ApoE −/− mice [5]; 0.1 mg/kg, cholesterol-rich regimen, untreated 0.11 ± 0.05): 0.15 ± 0.06 g/L
Plasma HDL level (ApoE −/− mice [5]; 1 mg/kg, cholesterol-rich regimen, untreated 0.11 ± 0.05): 0.15 ± 0.05 g/L
Variation of plasma HDL level (ApoE −/− mice [5]; regimen rich in cholesterol and fatty acid): 38.2%
Plasma HDL level (ApoE −/− mice [5]; regimen rich in cholesterol and fatty acid, dose not stated, control 0.11±0.005): 0.15 ± 0.005 g/L
Variation of plasma insulin level (ApoE −/− mice [6]; 0.1 or 1 mg/kg): 18.8%
Plasma insulin level (ApoE −/− mice [6]; 0.1 or 1 mg/kg IP, 3 months, control 1.17±0.2, p<0.01): 0.95 ± 0.16 ng/mL
Variation of plasma triglyceride level, treated in relation to untreated mice (ApoE −/− mice [7]): twice as great
Foamy macrophages and inflammatory reaction in the atheroma plaque (ApoE negative mice): significant reduction in these macrophages
